Test results: patent publication US10865384B2, “2,4,5-tri-substituted azole-based casein kinase 1 inhibitors as inducers for cardiomyogenesis” (AGENCY FOR SCIENCE, TECHNOLOGY AND RESEARCH, priority 2014, dated 2020)
Like-named read-outs stand apart in the source and are kept apart here.

Experiments:
p38α MAPK [1] = target: T1, p38α MAPK (Homo sapiens (Human), UniProt Q16539); test: LanthaScreen Eu kinase binding assay, p38 MAPK (IM-32 to IM-44); details: LanthaScreen Eu binding assay (IM-32 to IM-44); read-out: p38α MAPK IC50 ± SEM
Experimental: The p38 MAPK IC50 values of selected compounds except IM-32 to IM-44 were determined using the HitHunter™ p38 MAP kinase binding assay from DiscoveRx Corporation (Fremont, Calif., USA). The p38 MAPK IC50 values of IM-32 to IM-44 and the CK1 IC50 values of selected compounds were determined using LanthaScreen™ Eu kinase binding assay from Invitrogen (Life Technologies, Carlsbad, Calif., USA). The assays were performed following the manufacturers' protocols in white 384-well plates (Cat. No. 3572; Corning Incorporated, Corning, N.Y., USA). SB203580 was used as the control in all assays. For the HitHunter™ p38 MAP kinase binding assay the compounds were dissolved in DMSO (5 mM stocks) and diluted to a final concentration of 2% (vol/vol) DMSO for all assays. Recombinant GST-tagged active p38α MAP kinase enzyme (Millipore, Billerica, Mass., USA) was used for the HitHunter™ p38 MAP kinase binding assay. For the LanthaScreen™ Eu kinase binding assay the compounds were dissolved in DMSO (5 mM stocks) and diluted to a final concentration of 1% (vol/vol) DMSO for all assays. Each data point was done in triplicate. The assay was run using JANUS Automated Workstation according to the protocol developed using WinPREP software (Perkin Elmer Inc., Waltham, Mass., USA). Tecan Infinite® M1000 microplate reader (Tecan Group Ltd., Minnedorf, Switzerland) was used for luminescence measurements (HitHunter™ p38 MAP kinase binding assay) and fluorescence measurements (LanthaScreen™ Eu kinase binding assay; ex=340 nm, em=665, 615 nm). All data analysis was performed using GraphPad Prism 5 software (GraphPad Software Inc.). Inhibition curves and IC50 values were generated by nonlinear regression analysis and data represent mean±SEM.
The in vitro IC50 values of the synthesized compounds against the relevant kinase targets are summarized. The IC50 values were determined using either the HitHunter™ p38 MAPK binding assay from DiscoveRx or the LanthaScreen™ Eu kinase binding assay (for p38alpha MAPK, CK1delta, and CK1epsilon) from Invitrogen.

CK1ϵ = CK1ϵ (Homo sapiens (Human), UniProt P49674); test: LanthaScreen Eu kinase binding assay, CK1ϵ
CK1δ = CK1δ (Homo sapiens (Human), UniProt P48730); test: LanthaScreen Eu kinase binding assay, CK1δ
p38α MAPK [2] = target: T1, p38α MAPK; test: HitHunter p38 MAP kinase binding assay
hESC3 Nkx2.5eGFP/w cells = test: Differentiation in 96-U bottom ultra-low attachment well plates, GFP area imaging; type: cell-based, human; details: 5 μM; for Average GFP %: after CHIR99021, read on day 14, GFP area over embryoid body size; for Average GFP μm^2 / Average Area μm^2: day 14; for Average Area μm^2: embryoid body size
H3 hESCs Nkx2.5eGFP/w = test: High yield cardiomyocyte differentiation after 24 h CHIR99021 pre-treatment; type: cell-based, human; details: CHIR99021 only; CHIR99021 with SB203580 (days 1-8); CHIR99021 with IM-31 (days 4-8)
[3] = bound given in μM, read-out: p38α MAPK IC50

Sequence of CK1δ (P48730 whole entry): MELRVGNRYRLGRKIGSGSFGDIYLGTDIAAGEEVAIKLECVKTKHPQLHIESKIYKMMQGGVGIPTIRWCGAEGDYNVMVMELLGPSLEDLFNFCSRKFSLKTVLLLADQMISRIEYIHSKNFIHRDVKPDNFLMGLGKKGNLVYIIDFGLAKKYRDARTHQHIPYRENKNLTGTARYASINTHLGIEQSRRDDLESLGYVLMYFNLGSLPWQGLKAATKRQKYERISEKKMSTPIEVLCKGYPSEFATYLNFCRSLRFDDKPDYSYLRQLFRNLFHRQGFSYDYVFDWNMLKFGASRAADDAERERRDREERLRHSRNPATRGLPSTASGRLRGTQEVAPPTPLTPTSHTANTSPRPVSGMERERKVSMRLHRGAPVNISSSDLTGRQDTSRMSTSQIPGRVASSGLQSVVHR
Sequence of CK1ϵ (P49674 whole entry): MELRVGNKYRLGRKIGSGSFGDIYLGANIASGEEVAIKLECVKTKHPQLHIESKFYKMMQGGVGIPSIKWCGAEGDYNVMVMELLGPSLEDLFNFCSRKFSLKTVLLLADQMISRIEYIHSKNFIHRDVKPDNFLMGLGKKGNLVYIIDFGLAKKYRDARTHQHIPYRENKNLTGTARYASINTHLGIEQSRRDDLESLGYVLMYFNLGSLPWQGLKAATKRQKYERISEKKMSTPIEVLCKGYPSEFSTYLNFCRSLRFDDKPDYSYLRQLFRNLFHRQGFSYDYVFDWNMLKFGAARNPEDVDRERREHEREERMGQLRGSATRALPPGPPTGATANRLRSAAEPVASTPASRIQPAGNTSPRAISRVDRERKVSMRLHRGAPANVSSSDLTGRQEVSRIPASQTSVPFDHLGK
T1 sequence (Q16539 whole entry, looked up): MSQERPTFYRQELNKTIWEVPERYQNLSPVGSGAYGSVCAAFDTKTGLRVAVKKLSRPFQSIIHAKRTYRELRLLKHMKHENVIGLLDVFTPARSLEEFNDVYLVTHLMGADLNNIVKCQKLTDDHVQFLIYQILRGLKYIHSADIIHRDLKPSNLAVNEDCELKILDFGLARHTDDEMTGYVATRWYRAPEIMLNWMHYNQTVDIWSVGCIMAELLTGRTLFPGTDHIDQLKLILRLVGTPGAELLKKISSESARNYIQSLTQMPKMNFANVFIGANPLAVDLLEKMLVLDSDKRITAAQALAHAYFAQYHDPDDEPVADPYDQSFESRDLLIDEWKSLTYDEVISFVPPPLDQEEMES

Compound | IC50 (p38α MAPK [2]; read-out: p38α MAPK IC50 ± SEM) | inhibition at 1 µM (CK1δ) | IC50 (CK1ϵ; Table 3, read-out: IC50 Ck1ε) | IC50 (CK1ϵ; read-out: CK1ϵ IC50 ± SEM) | IC50 (CK1δ; Table 3, read-out: IC50 CK1δ) | IC50 (CK1δ; read-out: CK1δ IC50 ± SEM) | further results
Cc1cccc(-c2nc(C(O)C3=CCCCC3)[nH]c2-c2ccncc2)c1 (racemic) [IM-43, Cyclohex-1-en-1-yl(5(4)-(pyridin-4-yl)-4(5)-(m-tolyl)-1H-imidazol-2-yl)methanol] |  |  |  |  |  |  | IC50 (p38α MAPK [1]): 11 ± 2 nM; inhibition at 1 µM (CK1ϵ): 22%; CK1δ inhibition at 1 μM (CK1δ): No inhibition at 1 μM
COc1ccc2cc(-c3nc(-c4cccc(C)c4)c(C4=CCOCC4)[nH]3)ccc2c1 [IM-09, 5(4)-(3,6-dihydro-2H-pyran-4-yl)-2-(6-methoxynaphthalen-2-yl)-4(5)-(m-tolyl)-1H-imidazole] | 2.35 ± 0.374 µM | 13% |  |  |  |  | CK1ϵ inhibition at 1 μM (CK1ϵ): No inhibition at 1 μM
Cc1cccc(-c2nc(-c3ccccc3)[nH]c2C2=CCOCC2)c1 [IM-11, 5(4)-(3,6-dihydro-2H-pyran-4-yl)-2-phenyl-4(5)-(m-tolyl)-1H-imidazole] | 0.526 ± 0.137 µM |  |  |  |  |  | CK1ϵ inhibition at 1 μM (CK1ϵ): No inhibition at 1 μM; CK1δ inhibition at 1 μM (CK1δ): No inhibition at 1 μM
Cc1cccc(-c2nc(-c3ccccc3Cl)[nH]c2C2=CCOCC2)c1 [IM-12, 2-(2-chlorophenyl)-5(4)-(3,6-dihydro-2H-pyran-4-yl)-4(5)-(m-tolyl)-1H-imidazole] | 0.043 ± 0.002 µM | 23% |  |  |  |  | inhibition at 1 µM (CK1ϵ): 10%
Cc1cccc(-c2nc(-c3ccccc3Br)[nH]c2C2=CCOCC2)c1 [IM-13, 2-(2-bromophenyl)-5(4)-(3,6-dihydro-2H-pyran-4-yl)-4(5)-(m-tolyl)-1H-imidazole] | 0.019 ± 0.002 µM | 23% |  |  |  |  | inhibition at 1 µM (CK1ϵ): 23%
Cc1cccc(-c2nc(-c3ccccc3O)[nH]c2C2=CCOCC2)c1 [IM-14, 2-(5(4)-(3,6-dihydro-2H-pyran-4-yl)-4(5)-(m-tolyl)-1H-imidazol-2-yl)phenol] |  |  |  |  |  |  | IC50 (p38α MAPK [2]; [3]): > 5 µM; inhibition at 1 µM (CK1ϵ): 3%; CK1δ inhibition at 1 μM (CK1δ): No inhibition at 1 μM
Cc1cccc(-c2nc(-c3ccc(O)cc3)[nH]c2C2=CCOCC2)c1 [IM-15, 4-(5(4)-(3,6-dihydro-2H-pyran-4-yl)-4(5)-(m-tolyl)-1H-imidazol-2-yl)phenol] | 0.033 ± 0.002 µM |  |  |  |  |  | CK1ϵ inhibition at 1 μM (CK1ϵ): No inhibition at 1 μM; CK1δ inhibition at 1 μM (CK1δ): No inhibition at 1 μM
Cc1cccc(-c2nc(-c3ccc([S+](C)[O-])cc3)[nH]c2C2=CCOCC2)c1 (stereo not drawn) [IM-16] | 0.073 ± 0.021 µM |  | 5610 nM | 5610 ± 319 nM | 2540 nM | 2540 nM | 
Cc1cccc(-c2nc(-c3ccc([N+](=O)[O-])cc3)[nH]c2C2=CCOCC2)c1 [IM-17, 5(4)-(3,6-dihydro-2H-pyran-4-yl)-2-(4-nitrophenyl)-4(5)-(m-tolyl)-1H-imidazole] | 0.02 ± 0.002 µM | 17% |  |  |  |  | CK1ϵ inhibition at 1 μM (CK1ϵ): No inhibition at 1 μM
Cc1cccc(-c2nc(-c3c(F)cccc3F)[nH]c2C2=CCOCC2)c1 [IM-18, 2-(2,6-difluorophenyl)-5(4)-(3,6-dihydro-2H-pyran-4-yl)-4(5)-(m-tolyl)-1H-imidazole] | 0.014 ± 0.002 µM | 3% |  | 1240 ± 437 nM |  |  | 
Cc1cccc(-c2nc(-c3ccccc3F)[nH]c2-c2ccncc2)c1 [IM-19] | 0.0047 ± 0.0012 µM |  | 150 nM | 150 ± 89 nM | 454 nM | 454 ± 28 nM | 
Fc1ccc(-c2nc(-c3ccccc3F)[nH]c2C2=CCOCC2)cc1 [IM-20, 5(4)-(3,6-dihydro-2H-pyran-4-yl)-2-(2-fluorophenyl)-4(5)-(4-fluorophenyl)-1H-imidazole] | 0.561 ± 0.141 µM |  | 1140 nM | 1140 ± 287 nM | 1520 nM | 1520 ± 825 nM | 
Cc1ccc(-c2nc(-c3ccccc3F)[nH]c2C2=CCOCC2)cc1 [IM-21, 5(4)-(3,6-dihydro-2H-pyran-4-yl)-2-(2-fluorophenyl)-4(5)-(p-tolyl)-1H-imidazole] | 3.37 ± 0.824 µM |  |  |  |  |  | CK1ϵ inhibition at 1 μM (CK1ϵ): No inhibition at 1 μM; CK1δ inhibition at 1 μM (CK1δ): No inhibition at 1 μM
Fc1ccc(-c2nc(-c3ccc4ccccc4c3F)[nH]c2C2=CCOCC2)cc1 [IM-22, 5(4)-(3,6-dihydro-2H-pyran-4-yl)-2-(1-fluoronaphthalen-2-yl)-4(5)-(4-fluorophenyl)-1H-imidazole] | 2.31 ± 0.714 µM | 14% |  |  |  |  | CK1ϵ inhibition at 1 μM (CK1ϵ): No inhibition at 1 μM
Fc1ccc(-c2nc(-c3c(F)cccc3F)[nH]c2C2=CCOCC2)cc1 [IM-23, 2-(2,6-difluorophenyl)-5(4)-(3,6-dihydro-2H-pyran-4-yl)-4(5)-(4-fluorophenyl)-1H-imidazole] | 0.055 ± 0.014 µM |  | 751 nM | 751 ± 168 nM | 548 nM | 548 ± 116 nM | 
Oc1ccc(-c2nc(-c3ccc(F)cc3)c(C3=CCOCC3)[nH]2)cc1 [IM-24, 4-(5(4)-(3,6-dihydro-2H-pyran-4-yl)-4(5)-(4-fluorophenyl)-1H-imidazol-2-yl)phenol] | 0.149 ± 0.033 µM | 14% |  |  |  |  | CK1ϵ inhibition at 1 μM (CK1ϵ): No inhibition at 1 μM
C[S+]([O-])c1ccc(-c2nc(-c3ccc(F)cc3)c(C3=CCOCC3)[nH]2)cc1 (stereo not drawn) [IM-25] | 0.454 ± 0.067 µM |  | 5890 nM | 5890 ± 180 nM | 1490 nM | 1490 ± 285 nM | 
Cc1cccc(-c2nc(-c3c(F)cccc3F)[nH]c2-c2ccncc2)c1 [IM-26] | 0.0043 ± 0.0017 µM |  | 44 nM | 44 ± 5 nM | 78 nM | 78 ± 20 nM | 
Cc1cccc(-c2nc(-c3ccc(O)cc3)[nH]c2-c2ccncc2)c1 [IM-27] | 0.0084 ± 0.003 µM |  | 411 nM | 411 ± 120 nM | 1280 nM | 1280 ± 828 nM | 
Cc1cccc(-c2nc(-c3ccc([S+](C)[O-])cc3)[nH]c2-c2ccncc2)c1 (stereo not drawn) [IM-28] | 0.024 ± 0.009 µM |  | 274 nM | 274 ± 7 nM | 708 nM | 708 ± 43 nM | 
Fc1ccc(-c2nc(-c3ccc4ccccc4c3F)[nH]c2-c2ccncc2)cc1 [IM-29, 4-(2-(1-fluoronaphthalen-2-yl)-4(5)-(4-fluorophenyl)-1H-imidazol-5(4)-yl)pyridine] | 0.073 ± 0.017 µM |  |  | 16 ± 3 nM | 15 nM | 15 ± 3 nM | IC50 (CK1ϵ; read-out: IC50 Ck1ε): 16 nM
Fc1ccc(-c2nc(-c3ccccc3F)[nH]c2-c2ccncc2)cc1 [IM-30, 4-(2-(2-fluorophenyl)-4(5)-(4-fluorophenyl)-1H-imidazol-5(4)-yl)pyridine] | 0.02 ± 0.004 µM |  | 32 nM | 32 ± 4 nM | 32 nM | 32 ± 4 nM | Cardiogenic properties (hESC3 Nkx2.5eGFP/w cells; at specific time course (induction day 2 or 3)): higher cardiogenic properties as SB203580 and IWP-2; Average GFP % (hESC3 Nkx2.5eGFP/w cells; Induction Day 2): 32.8%; Average GFP μm^2 (hESC3 Nkx2.5eGFP/w cells; Induction Day 2): 250.1 μm^2; Average Area μm^2 (hESC3 Nkx2.5eGFP/w cells; Induction Day 2): 816.0 μm^2; Average GFP % (hESC3 Nkx2.5eGFP/w cells; Induction Day 3): 36.5%; Average GFP μm^2 (hESC3 Nkx2.5eGFP/w cells; Induction Day 3): 354.1 μm^2; Average Area μm^2 (hESC3 Nkx2.5eGFP/w cells; Induction Day 3): 968.7 μm^2
C[S+]([O-])c1ccc(-c2nc(-c3ccc(F)cc3)c(-c3ccncc3)o2)cc1 (stereo not drawn) [OZ-06] | 0.314 ± 0.044 µM | 46% |  |  |  |  | inhibition at 1 µM (CK1ϵ): 54%
C[S+]([O-])c1ccc(-c2nc(-c3ccncc3)c(-c3ccc(F)cc3)o2)cc1 (stereo not drawn) [OZ-12, 5-(4-fluorophenyl)-2-(4-(methylsulfinyl)phenyl)-4-(pyridin-4-yl)oxazole] |  | 34% |  |  |  |  | IC50 (p38α MAPK [2]; [3]): > 5 µM; inhibition at 1 µM (CK1ϵ): 51%
C[S+]([O-])c1ccc(-c2nc(-c3ccc(F)cc3)c(-c3ccncc3)[nH]2)cc1 (stereo not drawn) [SB203580, reference compound] |  |  |  |  |  |  | Average GFP % (hESC3 Nkx2.5eGFP/w cells; Induction Day 2): 34.6%; Average GFP μm^2 (hESC3 Nkx2.5eGFP/w cells; Induction Day 2): 217.8 μm^2; Average Area μm^2 (hESC3 Nkx2.5eGFP/w cells; Induction Day 2): 655.4 μm^2; Average GFP % (hESC3 Nkx2.5eGFP/w cells; Induction Day 3): 3.7%; Average GFP μm^2 (hESC3 Nkx2.5eGFP/w cells; Induction Day 3): 40.2 μm^2; Average Area μm^2 (hESC3 Nkx2.5eGFP/w cells; Induction Day 3): 814.2 μm^2; Average beating frequency (H3 hESCs Nkx2.5eGFP/w): 25-30 beats per minute; Beat count (percentage of EBs contracting within 10 s) (H3 hESCs Nkx2.5eGFP/w): over 75%; Beating area (H3 hESCs Nkx2.5eGFP/w): > 5 mm^2
